Assay results: patent US20230301972A1, “ANTI-FIBROTIC COMPOSITION AND RELATED METHODS” (Fred Hutchinson Cancer Center, priority 2020, published 2023)

Key:
Format in all cases: cell-based, human
[1] = tested on: IPF-LL29 and IPF-LL97A cells; test: qPCR of TGF-β-induced gene expression in IPF-LL29 and IPF-LL97A cells; settings: nintedanib at a same equivalent dose, pirfenidone at a much higher dose; FIGS. 2A, 2B, 3A, 3B
Procedure: IPF-LL29, IPF-LL97A, and human lung fibroblast LL47 cell lines were purchased from ATCC. Mouse lung fibroblasts were isolated from the lungs of male C57BL/6J mice. Cells were grown at 37° C. under 5% CO2, 95% ambient atmosphere and maintained in Dulbecco's […] (DMEM) supplemented with 10% FBS (Sigma) and 1% Penn Strep.
FIGS. 2A and 2B. IPF-29 (FIG. 2A) or IPF-97A (FIG. 2B) cells were incubated with TGF-β alone at 5 ng/ml or TGF-β with indicated drugs for 48 hours and 5 days. Total cellular RNA was isolated using a RNeasy Mini Kit (QIAGEN). 1 μg of total RNA was reverse transcribed into first-strand cDNA using an RT2 First Strand Kit (QIAGEN). The resultant cDNA was subjected to qPCR using indicated human primers to measure the changes in mRNA expression of indicated human genes.

[2] = tested on: LX2 cells; test: Live cell wound healing assay in LX2 cells; settings: 1 μM; TGFb 6.5 ng/ml; wound closure density at 50 hour
Procedure: (§1) LX2 cells were obtained from Sigma Aldrich (Cat #SCC064). LX2 cells were grown at 37° C. under 5% CO2, 95% ambient atmosphere and maintained in Dulbecco's […] (DMEM) supplemented with 10% FBS (Sigma) and 1% Penn Strep.
FIG. 10A: LX2 cells were plated on 96-well plates (Essen Image Lock, Essen Instruments). […] Wound closure was monitored with Incucyte Live-Cell Imaging System and software (Essen Instruments) every 2-4 hours for 72 hours. The mean relative wound density of at least three biological replicates was calculated. The wound density correlates with the cell motility. Plotted is the wound closure density at 50 hour.

[3] = tested on: LX2 cells; test: qPCR of TGF-β-induced gene expression in LX2 cells; settings: galunisertib
Procedure: as §1
FIGS. 10B and 10C: LX2 cells were incubated with TGF-β alone at 6.5 ng/ml or TGF-β with indicated drugs for 48 hours. Total cellular RNA was isolated using a RNeasy Mini Kit (QIAGEN). 1 μg of total RNA was reverse transcribed into first-strand cDNA using an RT2 First Strand Kit (QIAGEN). The resultant cDNA was subjected to qPCR using indicated human primers to measure the changes in mRNA expression of indicated human genes.

Compound: Cc1ccc(=O)n(-c2ccccc2)c1 [pirfenidone, reference compound]
- TGF-β induced expression of myofibroblast activation marker genes or proliferation stimuli [1]: did not effectively block

Compound: COC(=O)c1ccc2c(c1)NC(=O)/C2=C(\Nc1ccc(N(C)C(=O)CN2CCN(C)CC2)cc1)c1ccccc1 [nintedanib, reference compound]
- TGF-β induced expression of myofibroblast activation marker genes or proliferation stimuli [1]: did not effectively block

Compound: Cc1cccc(-c2nn3c(c2-c2ccnc4ccc(C(N)=O)cc24)CCC3)n1 [galunisertib, reference compound]
- TGF-β-induced motility of LX2 cells [2]: did not affect LX2 cell motility
- effect on TGF-β-induced expression of COL1A1 and αSMA [3]: modest effect
